Patent publication US11214803B2, “Modulators of YAP1 expression” (Ionis Pharmaceuticals, Inc., priority 2019, dated 2022)
Strand notation (5' to 3'): a small letter for the sugar, then the base; units joined by * are phosphorothioate-linked, units joined directly phosphodiester-linked; [ ] holds rarer units or linkages, { } end groups; capitals alone tell only the bases. e = 2'-O-(2-methoxyethyl) (MOE); k = constrained ethyl (cEt); [5mC] = 5-methylcytosine; d = 2'-deoxy (DNA); m = 2'-O-methyl

Tested on: Yap1 mRNA
Assay: Antisense inhibition of human Yap1 in SNU-449 cells by modified oligonucleotides, single dose (Example 5, RTS36584)
Assay type: cell-based
In short: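 SNU-449 cells (10,000/well) took up 2,000 nM oligonucleotide by free uptake for about 48 h. Yap1 mRNA was measured by qRT-PCR with primer probe set RTS36584 and normalised to RIBOGREEN total RNA. Values are % of untreated control; asterisked oligos target the amplicon region.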

[1] = Table 45, Yap1 mRNA as percent of untreated control, SNU-449 cells, single dose
[2] = Table 41, SNU-449 cells, 10,000 cells per well, free uptake, 2,000 nM modified oligonucleotide, approximately 48 hours, RTS36584, normalized to RIBOGREEN, Yap1 mRNA relative to untreated control cells
[3] = Table 48, Yap1 mRNA level relative to untreated control, modified oligonucleotides targeting SEQ ID NO.: 1 and 2
[4] = Table 50, Yap1 mRNA remaining as percent of untreated control (UT), SNU-449 cells, single dose
[5] = Table 40 (separate experiment), SNU-449 cells, 10,000 cells per well, free uptake, 2,000 nM oligonucleotide, approx. 48 hours, RTS36584, normalized to RIBOGREEN, Yap1 mRNA relative to untreated control
[6] = Table 52, Yap1 mRNA, modified oligonucleotides targeting SEQ ID NO: 1 and 2
[7] = Table 44 experiment, SNU-449 cells, 10,000 cells per well, free uptake, 2,000 nM, approximately 48 hours, RTS36584, Yap1 mRNA normalized to RIBOGREEN, relative to untreated control cells
[8] = Table 46, Yap1 mRNA as percent of untreated control, SNU-449 cells, single dose
[9] = Yap1 mRNA, percent of untreated control, modified oligonucleotides targeting SEQ ID NO: 1 and 2, Table 47
[10] = Table 49, Yap1 mRNA level relative to untreated control, modified oligonucleotides targeting SEQ ID NO.: 1 and 2
[11] = Table 39, SNU-449 cells, 10,000 cells per well, free uptake, 2,000 nM oligonucleotide, approx. 48 hours, RTS36584, normalized to RIBOGREEN, Yap1 mRNA relative to untreated control
[12] = Table 43 experiment, SNU-449 cells, 10,000 cells per well, free uptake, 2,000 nM, approximately 48 hours, RTS36584, Yap1 mRNA normalized to RIBOGREEN, relative to untreated control cells

For “1198972 (kA*k[5mC]*dT*dA*dA*dG*dT*dA*dA*dG*dG*kT*dT*kT*d[5mC]*k[5mC]; antisense) [Compound 1198972]”, the “YAP1 (% UTC)” value [1] was 46 % UTC.
In the case of “1198769 (kT*eT*kA*dT*dA*dT*dG*dG*dT*dT*dT*dT*eG*eT*kG*kT; antisense) [Compound 1198769]”, the “YAP1 (% UTC)” value [2] is reported as 77 % UTC.
In the case of “1198311 (k[5mC]*kA*k[5mC]*dT*dT*dT*dT*dA*d[5mC]*dA*dT*dT*kA*eG*kG*eA; antisense) [Compound 1198311]”, the “YAP1 (% UT)” value [3] is reported as 39 % UT.
“1197281 (kA*kT*kT*dG*mU*d[5mC]*dT*dC*dA*dT*dG*d[5mC]*d[5mC]*kT*kT*kA; antisense) [Compound 1197281]” was tested, and the “YAP1 (% UT)” value [4] was 42 % UT.
For “1198631 (kA*kA*dA*dT*dT*dG*dT*d[5mC]*dT*d[5mC]*dA*dT*kG*e[5mC]*k[5mC]*eT; antisense) [Compound 1198631]”, the “YAP1 (% UTC)” value [2] was 53 % UTC.
For “1198914 (kT*kT*dT*dT*dA*d[5mC]*dA*dT*dT*dA*dG*kG*dA*kA*d[5mC]*kA; antisense) [Compound 1198914]”, the “YAP1 (% UTC)” value [1] was 68 % UTC.
For “1198764 (kA*eG*kA*dT*dT*dT*dA*dG*dG*dA*dT*dG*e[5mC]*eA*kT*kG; antisense) [Compound 1198764]”, the “YAP1 (% UTC)” value [5] was 28 % UTC.
With “1200843 (kA*k[5mC]*kT*d[5mC]*dT*mU*dA*dT*dA*dT*dG*dG*dT*kT*kT*kT; antisense) [Compound 1200843]” the “YAP1 (% UT)” value [6] was 46 % UT.
For “1198907 (kT*k[5mC]*dT*dA*dT*dA*dT*dT*dA*dG*dA*kG*dT*kA*dT*kG; antisense) [Compound 1198907]”, the “YAP1 (% UTC)” value [7] was 74 % UTC.
With “1200821 (kT*kT*kG*dG*dA*mA*dG*dA*dT*d[5mC]*dT*dG*dA*kA*kA*k[5mC]; antisense) [Compound 1200821]” the “YAP1 (% UT)” value [6] was 59 % UT.
For “1198869 (kA*kT*dG*dT*dA*dA*dT*dA*dT*dT*dG*k[5mC]*eA*kA*eT*k[5mC]; antisense) [Compound 1198869]”, the “YAP1 (% UT)” value [8] was 49 % UT.
“1198918 (kG*k[5mC]*dA*d[5mC]*dT*dT*dT*dT*dA*d[5mC]*dA*kT*dT*kA*dG*kG) [Compound 1198918]” was tested, and the “YAP1 (% UTC)” value [1] was 27 % UTC.
In the case of “1197177 (antisense kA*kT*kT*dG*dT*d[5mC]*dT*d[5mC]*dA*dT*dG*d[5mC]*d[5mC]*kT*kT*kA) [Compound 1197177]”, the “YAP1 (% UT)” value [9] is reported as 15 % UT.
“1198324 (kA*kT*kA*dG*dT*dG*d[5mC]*dT*dT*dT*dG*dG*kA*eA*kG*eA; antisense) [Compound 1198324]” was tested, and the “YAP1 (% UT)” value [3] was 53 % UT.
In the case of “1197285 (kA*kG*kA*dG*mU*dA*dT*dG*dT*dG*dG*d[5mC]*dA*kA*kT*kA; antisense) [Compound 1197285]”, the “YAP1 (% UT)” value [4] is reported as 28 % UT.
“1198523 (kT*kT*dT*dA*dT*dG*dT*dA*dA*dT*dA*eT*kT*eG*k[5mC]*eA; antisense) [Compound 1198523]” was tested, and the “YAP1 (% UTC)” value [7] was 93 % UTC.
In the case of “1198964 (kT*kT*dT*dA*dA*dA*dG*dT*dG*dT*dA*kT*dG*kT*d[5mC]*kA; antisense) [Compound 1198964]”, the “YAP1 (% UTC)” value [1] is reported as 59 % UTC.
“1198746 (kG*e[5mC]*kA*d[5mC]*dT*dT*dT*dT*dA*d[5mC]*dA*dT*eT*eA*kG*kG; antisense) [Compound 1198746]” was tested, and the “YAP1 (% UTC)” value [5] was 7 % UTC.
“1198572 (antisense kA*kA*kG*d[5mC]*dA*d[5mC]*dT*dT*dT*dT*dA*d[5mC]*kA*kT*kT*eA) [Compound 1198572]” was tested, and the “YAP1 (% UT)” value [10] was 53 % UT.
For “1200838 (kA*kT*kA*dT*dG*mG*dT*dT*dT*dT*dG*dT*dG*kT*kG*kT; antisense) [Compound 1200838]”, the “YAP1 (% UT)” value [6] was 65 % UT.
In the case of “1198582 (antisense kA*kT*kA*dG*dT*dG*d[5mC]*dT*dT*dT*dG*dG*kA*kA*kG*eA) [Compound 1198582]”, the “YAP1 (% UT)” value [10] is reported as 63 % UT.
For “1198352 (kT*kG*kT*dA*dT*dG*dT*d[5mC]*dA*dG*dA*dA*kG*eA*kG*eT; antisense) [Compound 1198352]”, the “YAP1 (% UT)” value [10] was 7 % UT.
For “1198868 (kT*kG*dT*dA*dA*dT*dA*dT*dT*dG*d[5mC]*kA*eA*kT*e[5mC]*kT; antisense) [Compound 1198868]”, the “YAP1 (% UT)” value [8] was 49 % UT.
“1200818 (kA*kA*kG*d[5mC]*dA*mC*dT*dT*dT*dT*dA*d[5mC]*dA*kT*kT*kA; antisense) [Compound 1200818]” was tested, and the “YAP1 (% UT)” value [6] was 31 % UT.
“1198339 (kA*k[5mC]*kT*d[5mC]*dT*dT*dA*dT*dA*dT*dG*dG*kT*eT*kT*eT; antisense) [Compound 1198339]” was tested, and the “YAP1 (% UT)” value [10] was 25 % UT.
For “1198877 (kT*kT*dA*dA*dA*dG*dT*dG*dT*dA*dT*kG*eT*k[5mC]*eA*kG; antisense) [Compound 1198877]”, the “YAP1 (% UT)” value [9] was 11 % UT.
With “1198801 (antisense kG*eA*k[5mC]*dT*dA*dA*dG*dT*dA*dA*dG*dG*eT*eT*kT*k[5mC]) [Compound 1198801]” the “YAP1 (% UTC)” value [5] was 47 % UTC.
“1197195 (antisense kT*kT*kT*dA*dG*dG*dA*dT*dG*d[5mC]*dA*dT*dG*kG*kT*kT) [Compound 1197195]” was tested, and the “YAP1 (% UT)” value [9] was 38 % UT.
For “1198433 (kG*dT*dA*dA*dT*dA*dT*dT*dG*d[5mC]*dA*kA*eT*k[5mC]*eT*kG) [Compound 1198433]”, the “YAP1 (% UTC)” value [11] was 36 % UTC.
“1198675 (antisense k[5mC]*kA*dG*dA*dT*dT*dT*dA*dG*dG*dA*dT*kG*e[5mC]*kA*eT) [Compound 1198675]” was tested, and the “YAP1 (% UTC)” value [2] was 35 % UTC.
In the case of “1198861 (CAACTCTTATATGGTT; chemistry not fully specified) [Compound 1198861]”, the “YAP1 (% UT)” value [9] is reported as 100 % UT.
For “1198262 (kT*kG*dT*dA*dA*dT*dA*dT*dT*dG*d[5mC]*eA*eA*eT*k[5mC]*kT; antisense) [Compound 1198262]”, the “YAP1 (% UTC)” value [12] was 114 % UTC.
With “1198607 (antisense kA*kT*kG*dT*dA*dA*dT*dA*dT*dT*dG*d[5mC]*kA*kA*kT*e[5mC]) [Compound 1198607]” the “YAP1 (% UT)” value [4] was 77 % UT.
With “1198406 (kG*d[5mC]*dT*dT*dT*dG*dG*dA*dA*dG*dA*kT*e[5mC]*kT*eG*kA; antisense) [Compound 1198406]” the “YAP1 (% UTC)” value [11] was 17 % UTC.
With “1198733 (kG*eG*kT*dA*dT*dA*dA*d[5mC]*dT*dG*dG*dG*e[5mC]*eA*kA*kA; antisense) [Compound 1198733]” the “YAP1 (% UTC)” value [2] was 47 % UTC.
In the case of “1197253 (antisense kA*kG*kT*dG*mC*dT*dT*dT*dG*dG*dA*dA*dG*kA*kT*k[5mC]) [Compound 1197253]”, the “YAP1 (% UT)” value (Table 51, Yap1 mRNA remaining as percent of untreated control (UT), SNU-449 cells, single dose) is reported as 58 % UT.
“1198367 (kG*kA*k[5mC]*dT*dA*dA*dG*dT*dA*dA*dG*dG*kT*eT*kT*e[5mC]; antisense) [Compound 1198367]” was tested, and the “YAP1 (% UT)” value [10] was 58 % UT.
In the case of “1198946 (kA*kA*d[5mC]*dT*d[5mC]*dT*dT*dA*dT*dA*dT*kG*dG*kT*dT*kT; antisense) [Compound 1198946]”, the “YAP1 (% UTC)” value [1] is reported as 72 % UTC.
With “1198203 (kG*kG*dA*dA*dA*dT*dT*dG*dT*d[5mC]*dT*e[5mC]*eA*eT*kG*k[5mC]; antisense) [Compound 1198203]” the “YAP1 (% UTC)” value (Table 42 (separate experiment), SNU-449 cells, 10,000 cells per well, free uptake, 2,000 nM modified oligonucleotide, approximately 48 hours, RTS36584, normalized to RIBOGREEN, Yap1 mRNA relative to untreated control cells) was 19 % UTC.
With “1198373 (kA*dA*dA*dT*dT*dG*dT*d[5mC]*dT*d[5mC]*dA*kT*eG*k[5mC]*e[5mC]*kT; antisense) [Compound 1198373]” the “YAP1 (% UTC)” value [11] was 40 % UTC.
With “1198616 (antisense kT*kT*kT*dA*dA*dA*dG*dT*dG*dT*dA*dT*kG*kT*k[5mC]*eA) [Compound 1198616]” the “YAP1 (% UT)” value [4] was 16 % UT.
“1200834 (kA*kG*kA*dT*dT*mU*dA*dG*dG*dA*dT*dG*d[5mC]*kA*kT*kG; antisense) [Compound 1200834]” was tested, and the “YAP1 (% UT)” value [6] was 37 % UT.
For “1009328 (kT*kA*kT*dA*dT*dT*dA*dG*dA*dG*dT*dA*dT*kG*kT*kG; antisense) [Compound 1009328]”, the “YAP1 (% UT)” value [9] was 67 % UT.
“1095511 (antisense k[5mC]*kA*d[5mC]*dT*dG*dA*dG*dG*dT*dA*dT*kA*dA*k[5mC]*dT*kG) [Compound 1095511]” was tested, and the “YAP1 (% UTC)” value [1] was 46 % UTC.
In the case of “1198256 (kG*kA*d[5mC]*dA*dA*d[5mC]*dT*d[5mC]*dT*dT*dA*eT*eA*eT*kG*kG; antisense) [Compound 1198256]”, the “YAP1 (% UTC)” value [12] is reported as 78 % UTC.
